Experimental data taken from US20250009737A1, “COMPOUNDS AND METHODS FOR THE TARGETED DEGRADATION OF ANDROGEN RECEPTOR” (Arvinas Operations, Inc., priority 2023, published 2025).
Where two headings read alike, the source gives them in different places.

Tests used:
Assay type in all cases: in vitro ADME
[1] = target: T1, OATP1B3 (Homo sapiens, UniProt Q9NPD5); assay: OATP1B3 uptake transporter substrate assay; set-up: expressed in transfected cells; conditions: OATP1B3-expressing vs control cell
T1 sequence (Q9NPD5 1-702): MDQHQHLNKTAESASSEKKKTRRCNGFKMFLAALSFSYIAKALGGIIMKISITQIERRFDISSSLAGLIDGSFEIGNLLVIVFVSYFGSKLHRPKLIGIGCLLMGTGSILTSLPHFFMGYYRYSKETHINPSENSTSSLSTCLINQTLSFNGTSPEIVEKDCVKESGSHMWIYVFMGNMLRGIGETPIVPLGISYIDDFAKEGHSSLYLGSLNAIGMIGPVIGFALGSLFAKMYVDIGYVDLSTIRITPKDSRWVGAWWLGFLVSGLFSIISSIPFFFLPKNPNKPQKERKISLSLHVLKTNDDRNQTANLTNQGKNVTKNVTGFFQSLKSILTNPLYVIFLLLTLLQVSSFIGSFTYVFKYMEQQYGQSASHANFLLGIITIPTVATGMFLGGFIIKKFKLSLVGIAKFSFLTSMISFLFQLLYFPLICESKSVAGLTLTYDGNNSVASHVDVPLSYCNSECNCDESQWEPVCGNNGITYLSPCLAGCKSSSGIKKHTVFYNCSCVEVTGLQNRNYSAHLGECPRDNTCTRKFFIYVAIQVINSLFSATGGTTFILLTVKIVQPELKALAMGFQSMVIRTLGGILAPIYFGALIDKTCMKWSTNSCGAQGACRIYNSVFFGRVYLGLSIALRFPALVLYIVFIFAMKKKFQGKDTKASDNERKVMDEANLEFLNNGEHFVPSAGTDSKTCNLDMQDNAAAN
Protocol: The potential of Compound A to act as an efflux transporter Pgp and BCRP as well as uptake transporter OATP1B1 and 1B3 were assessed in Caco-2 and single transporter over-expressed HEK29 cells, respectively.
The potential of Compound A to act as a substrate for Pgp and BCRP was examined in Caco-2 cells at the concentrations of 0.075, 0.75, 3.75 and 7.5 μM containing 1% of BSA. After 120 min incubation, the bidirectional permeability of Compound A was determined by LC-MS/MS. The involvement of Compound A as a substrate of OATP1B1 and OATP1B3 was assessed in the uptake transporter substrate assays at 4 concentrations (0.1, 0.5, 1 and 5 μM). Compound A in cell lysates was determined by LC-MS/MS.

[2] = target: Pgp (Homo sapiens, UniProt P08183); assay: Pgp inhibition in inside-out membrane vesicles from HEK293; set-up: expressed in transfected cells; host or cells: HEK293 (inside-out membrane vesicles)
Chain of Pgp (P08183 whole entry): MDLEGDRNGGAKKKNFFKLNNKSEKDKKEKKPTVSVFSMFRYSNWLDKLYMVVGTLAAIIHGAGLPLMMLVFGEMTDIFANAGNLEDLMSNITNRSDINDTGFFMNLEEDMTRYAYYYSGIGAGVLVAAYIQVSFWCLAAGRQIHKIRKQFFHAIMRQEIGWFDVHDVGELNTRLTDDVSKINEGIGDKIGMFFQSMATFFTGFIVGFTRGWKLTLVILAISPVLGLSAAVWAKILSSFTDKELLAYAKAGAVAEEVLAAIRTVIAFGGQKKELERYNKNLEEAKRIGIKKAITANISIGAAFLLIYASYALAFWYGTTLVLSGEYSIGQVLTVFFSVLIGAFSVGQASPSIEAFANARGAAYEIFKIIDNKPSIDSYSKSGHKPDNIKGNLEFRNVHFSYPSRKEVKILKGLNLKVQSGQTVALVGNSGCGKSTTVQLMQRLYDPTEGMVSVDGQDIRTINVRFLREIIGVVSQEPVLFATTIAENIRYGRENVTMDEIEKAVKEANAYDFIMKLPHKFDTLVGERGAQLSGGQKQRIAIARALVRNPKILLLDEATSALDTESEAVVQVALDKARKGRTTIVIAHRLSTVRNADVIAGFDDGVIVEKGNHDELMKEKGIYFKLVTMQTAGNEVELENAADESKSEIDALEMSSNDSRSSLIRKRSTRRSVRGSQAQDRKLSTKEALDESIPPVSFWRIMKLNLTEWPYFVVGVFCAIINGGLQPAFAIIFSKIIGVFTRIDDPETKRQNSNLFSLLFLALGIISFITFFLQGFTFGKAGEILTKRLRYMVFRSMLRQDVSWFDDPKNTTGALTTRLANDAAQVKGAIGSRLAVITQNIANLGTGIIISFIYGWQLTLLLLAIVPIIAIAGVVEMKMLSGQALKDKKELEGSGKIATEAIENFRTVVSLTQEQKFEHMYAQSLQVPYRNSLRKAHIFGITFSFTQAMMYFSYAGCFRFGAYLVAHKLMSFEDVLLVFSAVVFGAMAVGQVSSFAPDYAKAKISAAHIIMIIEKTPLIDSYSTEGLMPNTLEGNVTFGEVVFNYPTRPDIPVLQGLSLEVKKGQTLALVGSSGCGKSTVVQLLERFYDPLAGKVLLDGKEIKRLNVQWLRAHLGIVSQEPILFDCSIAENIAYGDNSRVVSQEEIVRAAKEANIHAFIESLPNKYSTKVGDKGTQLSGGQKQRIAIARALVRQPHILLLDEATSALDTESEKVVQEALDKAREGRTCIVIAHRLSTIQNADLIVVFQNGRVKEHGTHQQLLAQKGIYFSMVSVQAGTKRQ
Protocol: (§1) In addition, the inhibition potential against efflux transporters (P-glycoprotein (Pgp) and breast cancer resistance protein (BCRP)) and uptake transporters (MATE1, MATE2-K, OATP1B1, OATP1B3, OAT1, OAT3, and OCT2) was assessed using single transporter over-expressed cell monolayers (MDCK II or HEK293) or inside-out vesicles.
(§2) The potential of Compound A to inhibit Pgp or BCRP was tested for bidirectional transport of the probe substrates in Pgp or BCRP-expressed MDCKII and control monolayers at Compound A concentrations of 0.07-5 μM. Pgp and BCR inhibition were tested in inside-out membrane vesicles prepared from HEK293 overexpressing human Pgp and BCR at concentrations of 0.01-9 μM Compound A in the presence of 4 mM MgATP or MgAMP.

[3] = target: CYP3A (Homo sapiens, UniProt P08684); assay: Direct and time-dependent CYP3A inhibition in pooled human liver microsomes; conditions: pooled HLM, read-out: IC50, No Pre-incubation
Chain of CYP3A (P08684 2-503): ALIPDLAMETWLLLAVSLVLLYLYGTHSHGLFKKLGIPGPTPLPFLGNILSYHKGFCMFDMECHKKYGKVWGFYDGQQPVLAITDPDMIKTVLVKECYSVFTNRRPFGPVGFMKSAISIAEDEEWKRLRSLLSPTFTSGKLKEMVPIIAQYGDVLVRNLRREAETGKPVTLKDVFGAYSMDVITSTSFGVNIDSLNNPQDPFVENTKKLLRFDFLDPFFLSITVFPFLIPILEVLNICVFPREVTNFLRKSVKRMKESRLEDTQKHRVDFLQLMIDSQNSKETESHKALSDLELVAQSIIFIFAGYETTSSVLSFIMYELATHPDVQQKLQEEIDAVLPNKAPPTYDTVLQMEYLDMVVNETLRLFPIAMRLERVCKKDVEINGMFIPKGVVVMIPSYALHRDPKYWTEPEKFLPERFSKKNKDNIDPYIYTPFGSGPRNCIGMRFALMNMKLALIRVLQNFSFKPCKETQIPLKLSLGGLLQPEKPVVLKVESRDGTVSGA
Protocol: (§3) The induction potential of Compound A on CYP enzymes was assessed in cryopreserved human hepatocytes from three donors. Following treatment for with Compound A at concentrations of 0.03-30 μM for 48 hours, mRNA levels for CYP1A2, 2B6, 2C8, 2C9, 2C19, and 3A4 were determined by semiquantitative real-time polymerase chain reaction (PCR). Test article concentrations during 24-hour incubation were determined. The potential of Compound A to cause direct and time-dependent inhibition (TDI) of the activities of CYP1A2, 2B6, 2C8, 2C9, 2C19, 2D6, and 3A4 was evaluated in pooled human liver microsomes (HLM) at 0.2-15 μM. Probe substrate concentrations around Km were used for direction inhibition and initial TDI assays. For TDI assay, Compound A was pre-incubated with pooled HLM with and without NADPH for 30 minutes prior to incubation with a single concentration of probe substrate.

[4] = target: T2, BCRP (Homo sapiens, UniProt Q9UNQ0); assay: BCRP inhibition, bidirectional transport in BCRP-expressed MDCKII monolayers; set-up: expressed in transfected cells; host or cells: MDCKII
T2 sequence (Q9UNQ0 1-655): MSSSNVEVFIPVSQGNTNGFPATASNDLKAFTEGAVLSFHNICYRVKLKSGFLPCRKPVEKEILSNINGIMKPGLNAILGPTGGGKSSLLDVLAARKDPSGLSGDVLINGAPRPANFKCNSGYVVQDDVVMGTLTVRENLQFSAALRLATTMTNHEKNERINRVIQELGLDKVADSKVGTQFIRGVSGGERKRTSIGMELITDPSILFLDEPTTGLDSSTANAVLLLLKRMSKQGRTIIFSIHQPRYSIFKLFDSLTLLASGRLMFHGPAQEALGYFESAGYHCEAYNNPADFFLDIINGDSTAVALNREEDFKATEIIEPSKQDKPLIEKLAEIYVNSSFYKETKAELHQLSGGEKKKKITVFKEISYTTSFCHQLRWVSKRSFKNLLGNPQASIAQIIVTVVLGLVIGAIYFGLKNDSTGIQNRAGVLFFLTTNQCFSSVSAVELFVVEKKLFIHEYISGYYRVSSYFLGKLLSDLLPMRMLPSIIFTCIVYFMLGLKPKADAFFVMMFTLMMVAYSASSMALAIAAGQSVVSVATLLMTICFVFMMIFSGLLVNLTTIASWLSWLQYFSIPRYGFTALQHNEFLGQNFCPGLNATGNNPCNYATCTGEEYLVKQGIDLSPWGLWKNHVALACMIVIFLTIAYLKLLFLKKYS
Protocol: as §1, §2

[5] = target: T3, CYP2B6 (Homo sapiens, UniProt P20813); assay: Direct and time-dependent CYP2B6 inhibition in pooled human liver microsomes; conditions: pooled HLM, substrate Bupropion 50 μM
T3 construct: evaluated in pooled human liver microsomes (HLM); from tissue; host or cells: pooled human liver microsomes
T3 sequence (P20813 whole entry): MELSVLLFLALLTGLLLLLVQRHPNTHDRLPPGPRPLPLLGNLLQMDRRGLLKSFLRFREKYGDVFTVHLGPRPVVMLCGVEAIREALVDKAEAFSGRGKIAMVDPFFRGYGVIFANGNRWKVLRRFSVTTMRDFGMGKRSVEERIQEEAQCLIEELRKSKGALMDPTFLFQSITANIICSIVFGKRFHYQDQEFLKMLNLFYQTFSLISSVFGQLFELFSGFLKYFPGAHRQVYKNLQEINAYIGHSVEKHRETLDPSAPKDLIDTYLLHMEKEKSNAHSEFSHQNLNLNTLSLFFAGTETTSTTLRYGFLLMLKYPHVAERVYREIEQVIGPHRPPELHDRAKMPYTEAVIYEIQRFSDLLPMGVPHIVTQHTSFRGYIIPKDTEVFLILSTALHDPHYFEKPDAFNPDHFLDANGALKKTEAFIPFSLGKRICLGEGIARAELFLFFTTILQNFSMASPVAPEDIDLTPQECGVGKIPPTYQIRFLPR
Protocol: as §3

Fold accumulation, OATP1B3 [1]: < 2 fold | Substrate for OATP1B3 ([1]; 0.1, 0.5, 1 and 5 μM): not a substrate | inhibition at 1 µM ([2]; human, probe NMQ (1 μM), Vesicles, substrate NMQ (1 μM), read-out: Maximal % Inhibition): 87% | IC50 ([2]; vesicle assays): 0.23 µM | IC50 ([3]; probe midazolam (2 μM), substrate Midazolam 2 μM): > 15 µM | IC50 ([3]; probe testosterone (50 μM), substrate Testosterone 50 μM): > 15 µM | inhibition at 1 µM ([4]; BCRP-expressed MDCKII cell monolayers, probe Prazosin (1 μM), Monolayers, substrate Prazosin (1 μM), read-out: Maximal % Inhibition): 54% | IC50 ([4]; monolayer assays): 1.55 µM | IC50 ([5]; read-out: IC50, 30 min Pre-incubation): > 15 µM | IC50 ([5]; read-out: IC50, No Pre-incubation): > 15 µM
Compound: COc1cc(O[C@H]2C(C)(C)[C@H](NC(=O)c3ccc(N4CCC(CN5CCN(c6ccc(C(=O)N[C@H]7CCC(=O)NC7=O)c(F)c6)CC5)CC4)cc3)C2(C)C)ccc1C#N [Compound A, 4-(4-((1-(4-(((1R,3R)-3-(4-cyano-3-methoxyphenoxy)-2,2,4,4-tetramethylcyclobutyl)carbamoyl)phenyl)piperidin-4-yl)methyl)piperazin-1-yl)-N—((S)-2,6-dioxopiperidin-3-yl)-2-fluorobenzamide]
